Experimental data: ChEMBL document CHEMBL1156829 (Proc Natl Acad Sci U S A, 2008)

Columns and labels:
Plasmodium falciparum [1] = test: NOVARTIS: Inhibition of Plasmodium falciparum 3D7 (drug-susceptible) proliferation in erythrocyte-based infection assay; type: functional, organism-based; conditions: Plasmodium falciparum, 3D7
[2] = NOVARTIS: Cytotoxicity against human hepatocellular carcinoma cell line (Huh7); type: toxicity, cell-based, Huh-7; conditions: Huh7 cells (hepatocellular carcinoma cell line)
Plasmodium falciparum [3] = test: NOVARTIS: Inhibition of Plasmodium falciparum W2 (drug-resistant) proliferation in erythrocyte-based infection assay; type: functional, organism-based; conditions: Plasmodium falciparum, W2; read-out: EC50

SMILES	EC50 (Plasmodium falciparum [1]) [nM]	CC50 [2] [nM]	EC50 (Plasmodium falciparum [3]) [nM]
Cc1cc(NCCN2CCCCC2)c2ccc3ccccc3c2n1	44.1	15600	81
Cc1nc2ccccc2c(O)c1CC=C(Cl)Cl	498	> 100000	514
CCOC(=O)C1=C(C)NC2=C(C(=O)C(C(=O)OCC)C(c3cccc(OC)c3)C2)C1c1cc(OC)c(OC)c(OC)c1 (configuration not stated)	1090	> 100000	494
CCC(c1nc2ccccc2c(=O)n1-c1cccc(C)c1)N(Cc1ccccc1)C(=O)Nc1c(C(C)C)cccc1C(C)C (configuration not stated)	395	> 100000	486
CC(C)N(C)Cc1cc(-c2nc3ccccc3s2)ccc1O	7870	> 100000	509
CCCCCCCn1c(=N)n(CC(O)c2ccc(Cl)c(Cl)c2)c2ccccc21 (configuration not stated)	204	6500	33.5
COc1cccc(NC(=O)c2ccc(NCCCN3CC(C)CC(C)C3)c([N+](=O)[O-])c2)c1 (configuration not stated)	275	> 100000	509
CCCCCCCCn1c(C)[n+](CC)c2cc(C(=O)OCC)ccc21	686	> 100000	504
O=C(c1ccc2nc(N3CCCCC3)sc2c1)N1CCN(Cc2ccccc2)CC1	907	> 100000	503
COc1ccccc1-n1c(C(C)N(C)C(=O)Nc2ccccc2F)nc2ccccc2c1=O (configuration not stated)	162	> 12400	62.3
O=C1Nc2ccccc2C12Nc1ccccc1-c1nc3ccccc3n12 (configuration not stated)	1090	> 100000	502
Cc1cc2c(cc1S(=O)(=O)N1CCCCC1C)OCC(=O)N2 (configuration not stated)	> 12500	> 100000	505
CCC1CCCCN1CCCNC(=O)c1cn(CC)c(=O)c2cc(OC)c(OC)cc12 (configuration not stated)	449	> 100000	505
CC1=C(C(=O)Nc2ccc(C)cc2C)C(c2ccc([N+](=O)[O-])cc2)n2ncc(C(=O)Nc3ccc(F)cc3)c2N1 (configuration not stated)	585	> 100000	514
Cc1cc(C)cc(NC(=S)NCCO)c1	3860	> 100000	513
COc1ccc(C(=O)C[n+]2ccc3c(c2)nc(-c2ccc(OC)cc2OC)n3C)cc1	920	> 100000	512
CN(CCCNc1ccnc2cc(Cl)ccc12)C(=O)c1ccc(Br)cc1	688	2610	13.4
COc1ccccc1NC1=C(N2CCCCC2)C(=O)c2ccccc2C1=O	28	7870	40.1
Oc1c(C(Nc2ccccn2)c2cccc(Oc3ccccc3)c2)ccc2cccnc12 (configuration not stated)	328	62800	320
COc1cc2ncnc(NC3CCN(Cc4ccccc4)CC3)c2cc1OC	400	> 100000	485
O=C(Nc1c2ccccc2nc2ccccc12)c1cc(Cl)ccc1O	1130	> 100000	484
C=C[C@H]1CN2CC[C@H]1C[C@@H]2[C@@H](OC(=O)Cc1ccccc1)c1ccnc2ccccc12	49.4	> 10000	51.7
O=C(C1CCC1)N1CCOc2c(cc(-c3csc4ccccc34)cc2OCCc2ccccn2)C1	754	> 99600	515
O=[N+]([O-])c1cc(Cl)c(N2CCOCC2)cc1N1CCOCC1	1040	> 100000	515
OC(CNCC1CCCO1)Cn1c2ccc(Br)cc2c2cc(Br)ccc21 (configuration not stated)	261	20300	99
CN(C)CC(O)Cn1c2ccccc2c2ccccc21 (configuration not stated)	> 11700	52800	275
O=C1C=C(Nc2cccc(C(F)(F)F)c2)C(=O)c2ccccc21	549	> 100000	519

SMILES	EC50 (Plasmodium falciparum [1]) [nM]	CC50 [2] [nM]	EC50 (Plasmodium falciparum [3]) [nM]
c1cc(C2=NCCN2)ccc1OCCCOc1ccc(C2=NCCN2)cc1	5.58	> 10000	51.8
CCOC(=O)c1ccc2nc(-c3ccccc3)cc(O)c2c1	549	> 100000	493
O=C(C(Cc1c[nH]c2ccccc12)NS(=O)(=O)c1ccc(Cl)cc1)N1CCCCC1 (configuration not stated)	719	> 100000	488
Clc1ccc2[nH]c3c(NCCCN4CCOCC4)ncnc3c2c1	109	31200	152
N#Cc1c2c(c(NCc3ccccn3)n3c1nc1ccccc13)CCCC2	223	> 100000	522
CN(C)[C@@H]1CCN(Cc2cccc(Cl)c2)C[C@@H]1CCC(=O)NCCCN1CCOCC1	593	> 2940	< 15.4
CCOC(=O)COc1ccc(C2NC(=S)NC(C)=C2C(C)=O)cc1OC (configuration not stated)	4030	> 100000	496
Cc1cc(C)n(-c2ccc(NC(=O)C3CCN(Cc4ccc5nonc5c4)CC3)cc2)n1	430	> 83200	412
CSc1nnc(-c2cccc([N+](=O)[O-])c2)n1Cc1ccccc1	652	> 100000	495
COc1cccc(N2C(N)=NC(N)=NC2(C)C)c1	55.5	> 100000	498
COc1ccc(C2c3[nH]c4ccccc4c3C[C@H]3C(=O)N(CCC(C)C)CC(=O)N23)cc1 (some centres not stated)	3190	> 100000	497
Cc1cccc(N2C(=O)C3C(C2=O)C2(c4ccccc4)C(=O)C3(c3ccccc3)C(c3ccc4c(c3)OCO4)=C2c2ccc3c(c2)OCO3)c1 (configuration not stated)	1070	> 100000	508
N#Cc1c2c(c(N3CCN(C4CCCCC4)CC3)n3c1nc1ccccc13)CCC2	183	> 100000	511
CCN(CC)C(=O)COc1ccc(-c2nnc(N3CCCCC3)c3ccccc23)cc1	1740	> 100000	508
CCOC(=O)C1CCN(C(=O)CN2C(=O)c3ccccc3C2c2c[nH]c3ccccc23)CC1 (configuration not stated)	519	> 100000	513
Cc1cnc(C)c(-c2ccc(O)c(CNCC3(N4CCCCC4)CCCCC3)c2)n1	326	> 7780	39.8
CCCCOc1ccc(C(=O)Nc2cc(C)on2)cc1	3160	> 100000	510
COc1cc(C(=O)NC2CC3CCC(C2)N3C2CC2)cc(OC)c1OC (configuration not stated)	450	> 100000	487
Cc1cc(Nc2ccc([N+](=O)[O-])cc2O)nc2ccccc12	357	28000	144
C=CCOc1ccc(C2C(C(=O)OCC)=C(C)N=c3sc(=Cc4ccccc4O)c(=O)n32)cc1OCC (configuration not stated)	608	53300	263
CCc1cc2c(NCCN3CCCCC3)ncnc2s1	1320	> 96100	466
O=c1[nH]n(CC2COC(c3ccccc3)O2)c(=O)c2ccccc12 (configuration not stated)	678	> 100000	488
CCS/C(Cl)=C(/NC(=O)c1ccccc1)[P+](c1ccccc1)(c1ccccc1)c1ccccc1	110	> 10000	52
CC1=C(C(=O)OC2CCCC2)C(c2ccc(Cl)cc2)C2=C(CC(c3ccc(Cl)cc3)CC2=O)N1 (configuration not stated)	2590	> 100000	487
N#CC(=Cc1ccc(Sc2ccccc2)o1)c1nc2ccccc2[nH]1	1050	> 100000	501
C#CC[N+]1(CC#Cc2cccc3ccccc23)CCCCC1	973	> 100000	484
CN(CCCNc1ccnc2cc(Cl)ccc12)C(=O)c1ccc(C(F)(F)F)cc1	166	64600	319
